Test results reported in ChEMBL document CHEMBL1201862, “PubChem BioAssay data set” (2004).
Calls of active or inactive are those of the source.

What was measured:
INS1 = assay: beta cell apoptosis inhibitors, cytokine rescue, dose response, luminescence, retest (AID 449756); assay type: functional, cell-based; details: Rattus norvegicus, INS1;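 note: cell death triggered by IL-1 beta plus TNF-alpha plus IFN-gamma mixture; protective hits raise ATP signal compared with cytokine alone wells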
[1] = Luminescence Cell-Based Dose Confirmation HTS to Identify Inhibitors of Polyadenylation.; assay type: functional
[2] = Shn3 3'UTR reporter inhibitors, dose response, cell-based, Clone20 osteoblasts, firefly luciferase, cherry-picked (AID 624132); assay type: functional;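 note: firefly luciferase luminescence from reporter carrying the Shn3 3'UTR in osteoblasts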
[3] = control 3'UTR Renilla luciferase suppression, dose response, counter-screen for Shn3 inhibitor project, cell-based, Clone20-Shn3RL, cherry-picked (AID 624133); assay type: functional
[4] = HepG2 cell cytotoxicity, dose response, cytotoxicity control for Shn3 inhibitor project, CellTiter-Glo, cherry-picked (AID 624134); assay type: functional, cell-based
NADPH oxidase 1 = NADPH oxidase 1 (Homo sapiens, UniProt Q9Y5S8); assay: Late-stage luminescence-based cell-based dose response assay to identify inhibitors of NADPH oxidase 1 (NOX1): Purchased analogs 2.; assay type: functional
Genome polyprotein = Genome polyprotein (Hepatitis C virus, UniProt Q2Q167); assay: HCV core protein dimerization inhibitors, dose response, biochemical, TR-FRET (AID 2159); design: species or system Hepacivirus hominis;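 note: blocks dimerization of HCV core protein measured by TR-FRET between tagged core106 pairs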
[5] = molecular target: Serine/threonine-protein phosphatase PP1-alpha catalytic subunit (Homo sapiens, UniProt P62136); assay: PP1 phosphatase inhibitors, dose response, biochemical, fluorescence (AID 2394)
[6] = molecular target: Mitochondrial peptide methionine sulfoxide reductase (Bos taurus, UniProt P54149); assay: Absorbance-based biochemical high throughput dose response assay for activators of Methionine sulfoxide reductase A (MsrA).; assay type: functional
[7] = molecular target: Serine/threonine-protein phosphatase (Homo sapiens, UniProt Q9BPW0); assay: PP5 phosphatase inhibitors, dose response, biochemical, fluorescence (AID 2395)
[8] = molecular target: Induced myeloid leukemia cell differentiation protein Mcl-1 (Homo sapiens, UniProt Q07820); assay type: functional
[9] = molecular target: T1, Apoptotic protease-activating factor 1 (Homo sapiens, UniProt O14727); assay type: functional
T1 sequence (O14727 whole entry): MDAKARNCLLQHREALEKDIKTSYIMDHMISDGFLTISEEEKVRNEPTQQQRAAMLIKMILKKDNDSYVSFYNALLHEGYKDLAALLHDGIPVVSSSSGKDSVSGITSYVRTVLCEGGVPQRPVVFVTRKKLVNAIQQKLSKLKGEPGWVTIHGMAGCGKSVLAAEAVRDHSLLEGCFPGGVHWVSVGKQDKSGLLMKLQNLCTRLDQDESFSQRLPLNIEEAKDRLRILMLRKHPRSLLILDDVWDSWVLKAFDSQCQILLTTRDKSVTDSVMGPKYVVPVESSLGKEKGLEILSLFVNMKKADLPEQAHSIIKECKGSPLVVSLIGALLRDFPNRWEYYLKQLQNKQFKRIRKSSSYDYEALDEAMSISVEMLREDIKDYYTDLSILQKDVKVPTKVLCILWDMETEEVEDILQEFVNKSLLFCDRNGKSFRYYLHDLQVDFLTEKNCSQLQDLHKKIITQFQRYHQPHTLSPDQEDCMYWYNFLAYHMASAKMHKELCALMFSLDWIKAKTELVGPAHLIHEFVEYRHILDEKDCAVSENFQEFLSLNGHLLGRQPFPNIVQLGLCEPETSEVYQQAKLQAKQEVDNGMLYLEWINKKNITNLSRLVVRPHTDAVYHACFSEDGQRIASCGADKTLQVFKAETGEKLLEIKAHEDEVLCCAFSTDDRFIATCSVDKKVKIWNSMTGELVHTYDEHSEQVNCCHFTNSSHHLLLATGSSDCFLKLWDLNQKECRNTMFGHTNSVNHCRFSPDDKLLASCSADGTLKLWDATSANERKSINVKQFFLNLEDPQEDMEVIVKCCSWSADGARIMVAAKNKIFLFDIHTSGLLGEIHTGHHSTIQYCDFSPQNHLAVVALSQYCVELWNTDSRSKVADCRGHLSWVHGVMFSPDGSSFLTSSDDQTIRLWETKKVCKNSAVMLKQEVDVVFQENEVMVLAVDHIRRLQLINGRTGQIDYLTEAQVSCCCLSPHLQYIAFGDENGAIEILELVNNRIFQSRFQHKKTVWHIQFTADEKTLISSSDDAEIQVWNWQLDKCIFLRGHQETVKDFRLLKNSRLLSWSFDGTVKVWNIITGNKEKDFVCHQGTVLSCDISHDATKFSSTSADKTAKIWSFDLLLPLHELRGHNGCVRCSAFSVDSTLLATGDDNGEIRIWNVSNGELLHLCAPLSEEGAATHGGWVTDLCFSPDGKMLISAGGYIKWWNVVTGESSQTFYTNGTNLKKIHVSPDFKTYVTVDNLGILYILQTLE

[10] = molecular target: T2, Ubiquitin-conjugating enzyme E2 N (Homo sapiens, UniProt P61088); assay type: functional;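 note: Dose-response confirmation in a TR-FRET assay detecting UBC13-driven polyubiquitin chain formation, inhibition measured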
T2 sequence (P61088 whole entry): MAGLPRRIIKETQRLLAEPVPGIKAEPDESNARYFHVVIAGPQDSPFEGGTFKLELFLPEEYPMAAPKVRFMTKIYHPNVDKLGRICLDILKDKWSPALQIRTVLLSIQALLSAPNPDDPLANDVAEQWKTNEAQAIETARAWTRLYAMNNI

[11] = Glucagon-like peptide 1 release potency, NCI-H716 cell line, dose-response, half-maximal inhibitory concentration (AID 1117344); assay type: functional, cell-based
Melanocortin receptor 4 = Melanocortin receptor 4 (Homo sapiens, UniProt P32245); assay type: functional, cell-based;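 note: Cell-based assay with luminescence read-out, confirmatory dose-response testing for agonist activity of biased ligands at MC4R; human U2OS cells with tagged receptor and beta-arrestin; potency of agonists that increase receptor coupling to beta-arrestin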
[12] = molecular target: T3, DNA repair protein RAD52 homolog (Homo sapiens, UniProt P43351); assay type: functional, biochemical
T3 sequence (P43351 whole entry): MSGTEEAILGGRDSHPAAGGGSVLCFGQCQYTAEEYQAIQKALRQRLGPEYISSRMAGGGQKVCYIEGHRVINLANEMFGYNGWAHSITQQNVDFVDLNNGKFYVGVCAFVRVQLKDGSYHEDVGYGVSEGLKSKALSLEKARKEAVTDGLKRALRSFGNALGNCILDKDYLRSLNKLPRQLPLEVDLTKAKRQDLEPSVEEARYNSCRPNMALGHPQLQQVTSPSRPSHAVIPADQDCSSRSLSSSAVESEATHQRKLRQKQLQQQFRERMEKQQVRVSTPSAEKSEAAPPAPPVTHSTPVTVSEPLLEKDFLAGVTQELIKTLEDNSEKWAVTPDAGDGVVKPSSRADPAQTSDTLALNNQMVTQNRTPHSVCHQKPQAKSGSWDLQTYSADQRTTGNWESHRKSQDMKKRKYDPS

[13] = half-maximal inhibitory concentration for glucagon-like peptide-1 release, STC-1 cell line, dose-response (AID 1117345); assay type: functional, cell-based
[14] = Single fluorophore orthopox expression reporter, late gene expression Measured in Cell-Based and Microorganism Combination System Using Plate Reader - 2142-08_Inhibitor_Dose_DryPowder_Activity.; assay type: functional
[15] = inhibitors of orthopox intermediate gene expression, dose response, cell-based, single fluorophore reporter, dry powder (AID 1117271); assay type: functional
[16] = A549 cell cytotoxicity, dose response, CellTiter-Glo luminescence, dry powder, set 17 (AID 1117284); assay type: functional, cell-based
[17] = Orthopox viral replication plaque formation Measured in Cell-Based and Microorganism Combination System Using Imaging - 2142-05_Inhibitor_Dose_DryPowder_Activity.; assay type: functional
[18] = molecular target: Sphingosine 1-phosphate receptor 2 (Homo sapiens, UniProt O95136); assay: Dose Response Cell Based Assay for Agonists of the S1P2 Receptor. [Related pubchem assays: 729, 736, 843 ]; assay type: functional
Sequence of Sphingosine 1-phosphate receptor 2 (O95136 whole entry): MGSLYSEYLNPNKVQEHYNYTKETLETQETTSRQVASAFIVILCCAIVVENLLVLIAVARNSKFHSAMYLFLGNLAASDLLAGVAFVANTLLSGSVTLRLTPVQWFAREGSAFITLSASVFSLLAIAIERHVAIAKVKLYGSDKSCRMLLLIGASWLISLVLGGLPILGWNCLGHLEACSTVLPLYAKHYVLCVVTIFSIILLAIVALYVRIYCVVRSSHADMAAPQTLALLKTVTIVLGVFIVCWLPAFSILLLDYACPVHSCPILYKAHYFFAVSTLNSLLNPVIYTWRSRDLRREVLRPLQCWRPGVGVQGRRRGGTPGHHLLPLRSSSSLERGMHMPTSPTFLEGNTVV

Sequence of Induced myeloid leukemia cell differentiation protein Mcl-1 (Q07820 whole entry): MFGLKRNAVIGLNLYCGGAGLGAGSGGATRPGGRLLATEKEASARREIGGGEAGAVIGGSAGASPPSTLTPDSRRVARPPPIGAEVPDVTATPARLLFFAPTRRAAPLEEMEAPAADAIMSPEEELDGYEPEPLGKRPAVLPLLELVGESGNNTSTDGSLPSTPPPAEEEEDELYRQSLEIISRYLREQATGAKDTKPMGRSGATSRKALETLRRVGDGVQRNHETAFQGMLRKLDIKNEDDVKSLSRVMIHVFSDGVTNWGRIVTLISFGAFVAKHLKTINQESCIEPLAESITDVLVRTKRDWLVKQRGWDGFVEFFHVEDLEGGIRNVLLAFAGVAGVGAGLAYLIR
Sequence of Serine/threonine-protein phosphatase (Q9BPW0 whole entry): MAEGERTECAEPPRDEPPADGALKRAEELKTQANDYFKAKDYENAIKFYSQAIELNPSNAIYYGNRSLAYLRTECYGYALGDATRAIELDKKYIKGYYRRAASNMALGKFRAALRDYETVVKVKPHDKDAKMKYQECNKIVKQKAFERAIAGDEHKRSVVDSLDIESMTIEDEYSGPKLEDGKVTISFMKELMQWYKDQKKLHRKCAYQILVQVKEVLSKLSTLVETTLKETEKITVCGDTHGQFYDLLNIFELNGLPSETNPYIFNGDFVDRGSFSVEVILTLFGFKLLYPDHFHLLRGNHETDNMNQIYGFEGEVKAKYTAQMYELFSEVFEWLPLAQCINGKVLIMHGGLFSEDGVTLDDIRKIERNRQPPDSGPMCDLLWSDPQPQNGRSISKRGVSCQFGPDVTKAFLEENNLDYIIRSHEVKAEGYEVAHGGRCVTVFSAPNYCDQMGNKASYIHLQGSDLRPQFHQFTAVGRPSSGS
Sequence of Serine/threonine-protein phosphatase PP1-alpha catalytic subunit (P62136 whole entry): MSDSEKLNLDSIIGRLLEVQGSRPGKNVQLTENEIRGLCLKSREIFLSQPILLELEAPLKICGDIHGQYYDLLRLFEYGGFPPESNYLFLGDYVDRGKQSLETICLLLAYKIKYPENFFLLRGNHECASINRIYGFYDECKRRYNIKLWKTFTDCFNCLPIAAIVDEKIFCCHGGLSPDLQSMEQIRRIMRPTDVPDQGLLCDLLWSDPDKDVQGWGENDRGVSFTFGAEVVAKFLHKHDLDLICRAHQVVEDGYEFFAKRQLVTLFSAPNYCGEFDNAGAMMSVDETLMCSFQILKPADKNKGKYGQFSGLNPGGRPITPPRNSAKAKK
Sequence of Melanocortin receptor 4 (P32245 whole entry): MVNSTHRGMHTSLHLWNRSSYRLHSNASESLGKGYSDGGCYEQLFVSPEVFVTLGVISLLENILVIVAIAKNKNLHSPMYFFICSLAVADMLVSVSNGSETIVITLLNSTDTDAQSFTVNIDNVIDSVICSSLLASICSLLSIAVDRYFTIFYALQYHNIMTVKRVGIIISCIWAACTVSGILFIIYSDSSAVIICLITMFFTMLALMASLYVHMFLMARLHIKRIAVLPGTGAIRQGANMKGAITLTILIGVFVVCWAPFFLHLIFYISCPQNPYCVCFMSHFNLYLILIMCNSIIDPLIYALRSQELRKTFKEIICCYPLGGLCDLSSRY
Sequence of Mitochondrial peptide methionine sulfoxide reductase (P54149 whole entry): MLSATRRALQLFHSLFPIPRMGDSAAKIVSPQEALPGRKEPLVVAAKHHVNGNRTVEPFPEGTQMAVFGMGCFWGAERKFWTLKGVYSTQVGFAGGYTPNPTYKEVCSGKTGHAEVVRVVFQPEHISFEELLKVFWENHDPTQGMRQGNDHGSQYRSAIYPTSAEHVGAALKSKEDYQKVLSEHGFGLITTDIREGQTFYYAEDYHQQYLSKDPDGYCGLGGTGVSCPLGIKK
Sequence of NADPH oxidase 1 (Q9Y5S8 whole entry): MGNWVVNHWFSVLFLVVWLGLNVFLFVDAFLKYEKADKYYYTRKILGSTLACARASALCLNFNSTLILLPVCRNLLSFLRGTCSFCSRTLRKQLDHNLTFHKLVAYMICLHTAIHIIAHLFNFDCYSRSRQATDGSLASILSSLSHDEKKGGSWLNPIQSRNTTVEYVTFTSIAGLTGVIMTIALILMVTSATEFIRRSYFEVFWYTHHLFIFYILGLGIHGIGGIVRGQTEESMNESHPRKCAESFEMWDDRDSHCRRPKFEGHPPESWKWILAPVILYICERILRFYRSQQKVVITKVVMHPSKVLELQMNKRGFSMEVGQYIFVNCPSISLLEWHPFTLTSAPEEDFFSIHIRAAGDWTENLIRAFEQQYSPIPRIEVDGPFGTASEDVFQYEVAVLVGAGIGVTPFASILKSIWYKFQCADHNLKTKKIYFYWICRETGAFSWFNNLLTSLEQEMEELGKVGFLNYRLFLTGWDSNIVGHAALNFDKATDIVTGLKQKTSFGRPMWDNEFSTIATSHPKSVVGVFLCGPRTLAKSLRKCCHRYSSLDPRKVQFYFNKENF
Sequence of Genome polyprotein (Q2Q167 whole entry): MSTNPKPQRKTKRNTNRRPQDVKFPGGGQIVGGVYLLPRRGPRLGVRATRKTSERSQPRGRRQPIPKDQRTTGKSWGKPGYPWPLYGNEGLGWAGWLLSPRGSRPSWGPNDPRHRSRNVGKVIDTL

Compound: COc1ccc(CNc2ncnc3sccc23)cc1
- AC50 (INS1): 5.39 µM (active)
- EC50 [1]: > 120 µM (not active)
- AC50 [2]: 1.66 µM (active)
- AC50 [3]: 8.63 µM (active)
- AC50 [4]: 36 µM (active)

Compound: COc1ccc(NS(=O)(=O)Cc2ccc(N)cc2)cc1
- IC50 (NADPH oxidase 1): > 17 µM (not active)

Compound: CC1(O)C(=O)C=C2C=C(c3ccc(C#N)cc3)OC=C2C1=O (stereo not drawn)
- IC50 (Genome polyprotein): > 49.8 µM (not active)

Compound: Cc1cc(C)c(S(=O)(=O)/N=C2/C=C(Sc3nc[nH]n3)C(=O)c3ccccc32)cc1C
- IC50 [5]: 18.6 µM (not active)
- AC50 (INS1): 2.6 µM (active)
- EC50 [6]: > 104 µM (inactive)
- IC50 [7]: 4.19 µM (active)
- IC50 [8]: 3.07 µM (active)

Compound: CC(C)(C)CC(C)(C)c1ccc(OCCOCC[N+](C)(C)Cc2ccccc2)cc1 [BENZETHONIUM CHLORIDE]
- IC50 [9]: 23.5 µM (active)
- IC50 [10]: > 20 µM (inactive)
- IC50 [11]: 21.9 µM (inactive)
- EC50 (Melanocortin receptor 4): > 89.2 µM (inactive)
- AC50 [12]: 31.3 µM (active)
- IC50 [13]: 13.8 µM (inactive)

Compound: C[C@@H](O)C#Cc1ccc2c(c1)O[C@@H](CN(C)Cc1ccc(-c3ccccc3Cl)cc1)[C@@H](C)CN([C@@H](C)CO)S2(=O)=O
- AC50 [14]: 1.18 µM (active)
- AC50 [15]: 1.43 µM (active)
- AC50 [16]: > 52 µM (inactive)
- AC50 [17]: 0.601 µM (active)

Compound: Cc1ccc(CNC(=O)CCNC(=O)c2ccco2)cc1
- EC50 [18]: > 50 µM (not active)
